Test results as given in PMC6720511, “Synthesis and biological evaluation of novel N-(piperazin-1-yl)alkyl-1H-dibenzo[a,c]carbazole derivatives of dehydroabietic acid as potential MEK inhibitors” (Journal of Enzyme Inhibition and Medicinal Chemistry, 2019).

Legend:
Assay type in all cases: cell-based, human
HepG2 cells [1] = experiment: Cell cycle analysis (PI staining, flow cytometry); conditions: HepG2, 2 µM (as printed in text), 48 h
Procedure: Cell cycle distributions in HepG2 cells were determined through propidium iodide (PI) staining and analysed by flow cytometry. HepG2 cells were seeded into a six-well plate at 5 × 10^5 cell/mL and treated with different concentrations of compound 10g for 48 h. After treatment, cells were detached with 0.25% trypsin, harvested by centrifugation, washed twice with ice-cold PBS and then fixed and permeabilised with ice-cold 70% ethanol at 4 °C overnight. Ethanol was removed and the cells were washed twice with ice-cold PBS. After this, the cells were treated with 100 µL of RNase (100 µg/mL) at 37 °C for 30 min, followed by incubation with 400 µl of DNA staining solution (PI) (1 mg/mL) in the dark at 4 °C for 30 min. The samples were analyzed by a flow cytometer (Becton-Dickinson FACSCalibur, NJ, USA) and data were analysed using the FlowJo software (Becton-Dickinson & Co, Totowa, NJ, USA).

HepG2 cells [2] = experiment: Annexin V-FITC/PI dual staining assay; conditions: HepG2, 2 µM (as printed in text), 48 h
Procedure: The extent of apoptosis was quantitatively measured using Annexin V-FITC/PI dual staining assay. HepG2 cells were seeded into a six-well plate at 5 × 10^5 cells per well in 10% foetal calf serum (FBS)-DMEM into six-well plates and treated with different concentrations of the indicated compound 10g for 48 h. The cells were detached with 0.25% trypsin, washed with ice-cold PBS for twice and then resuspended in 1 × Binding buffer (0.1 M Hepes/NaOH (pH 7.4), 1.4 M NaCl, 25 mM CaCl2). The cells were stained with 5 µL of Annexin V-FITC and 5 µL of PI (propidium iodide) to each tube. The cells were gently vortexed and incubated in the dark at room temperature for 15 min and then keep them at 4 °C. The samples were analysed by a flow cytometer (Becton-Dickinson FACSCalibur, NJ, USA) and data were analysed using the FlowJo software (Becton-Dickinson & Co, Totowa, NJ, USA).

HepG2 cells [3] = experiment: Mitochondrial membrane potential assay (JC-1)
Procedure: The JC-1 mitochondrial membrane potential assay kit (Keygene Biotech., China) was employed to measure mitochondrial depolarization in HepG2 cells. Briefly, cells cultured in six-well plates after indicated treatments were incubated with an equal volume of JC-1 staining solution (5 µg/mL) at 37 °C for 20 min and rinsed twice with PBS. Mitochondrial membrane potentials were monitored by determining the relative amounts of dual emissions from mitochondrial JC-1 monomers or aggregates using flow cytometry (Becton-Dickinson FACSCalibur, New York, USA). Mitochondrial depolarization is indicated by an increase in the pencentage of cells with low ΔΨm (green fluorescence, lower right quadrant) compared with cells with high ΔΨm (red fluorescence, upper right quadrant).

CCOc1ccc2c(c1)c1c(n2CCN2CCNCC2)-c2cc(C(C)C)ccc2C2(C)CCCC(C)(C(=O)OC)C12 (stereo not drawn) [Compound 10g, 2,3,4,4a,9,13c-Hexahydro-12-ethoxy-7-isopropyl-1,4a-dimethyl-9–(2-(piperazin-1-yl)ethyl)-1H-dibenzo[a,c]carbazole-1-carboxylic acid methyl ester]
G0/G1 phase cells (HepG2 cells [1]): 55.37%
percentage of cells in G2/M phase (HepG2 cells [1]): 20.09%
percentage of early and late apoptotic cells (HepG2 cells [2]): 60.02%
percentage of cells with low ΔΨm (lower right quadrant) (HepG2 cells [3]; HepG2, 0.2 µM): 5.29%
percentage of cells with low ΔΨm (lower right quadrant) (HepG2 cells [3]; HepG2, 0.5 µM): 9.47%
percentage of cells with low ΔΨm (lower right quadrant) (HepG2 cells [3]; HepG2, 1.0 µM): 15.00%
